From patent US6943190B2, “Method of using pyruvate and/or its derivatives for the treatment of cytokine-mediated inflammatory conditions” (University of Pittsburgh-of the Commonwealth System of …, priority 2001, dated 2005)

Tests used:
[1] = system: lethal endotoxemia (E. coli lipopolysaccharide); assay: Lethal endotoxemia (LPS) in mice: survival and morbidity; format: in vivo, Balb/C mice; details: for survival: P<0.005
Protocol: Animal Experiments. Male 6-8 week old Balb/C mice (20-25 g) were purchased from Harlen Sprague-Dawley (Indianapolis, Ind.) and allowed to acclimate for 7 days housed at 25° C. on a 12 h light/dark cycle. Animals were randomly grouped (10 mice per group) and assigned to a specific experiment. All animal experiments were performed in accordance with the National Institutes of Health Guidelines under protocols approved by the Institutional Animal Care and Use Committee of North Shore University Hospital and New York University Medical School.
(§1) Endotoxin shock. Mice were injected with endotoxin (Escherichia coli lipopolysaccharide, LPS 0111:B4; Sigma Chemical Co, St. Louis, Mo.) that was dissolved in sterile pyrogen-free saline at stock concentrations of 10 mg/ml. LPS solutions were sonicated for 20 min immediately prior to use for each experiment. Mice received an LD75 dose of LPS (5 mg/kg, i.p.). Blood was collected at different times after LPS administration, allowed to clot for 2 h at room temperature, then centrifuged for 20 min at 1,500 g. Serum samples were stored at […] prior to analysis. Mortality was recorded for up to 3 weeks after injection to ensure that no additional late deaths occurred.
Ethyl Pyruvate Solution: Ethyl pyruvate was prepared in solution with sodium (130 mM), potassium (4 mM), calcium (2.7 mM), chloride (130 mM), and ethyl pyruvate (28 mM); pH 7.0). For injections in mice solutions were diluted so that each injection volume was 0.4 ml per dose.
The initial evaluation of ethyl pyruvate (EP) was conducted as a therapeutic solution in lethal systemic inflammation in a standard model of murine endotoxemia. Balb/c mice received a single dose of ethyl pyruvate (40 mg ethyl pyruvate/kg mouse) 30 minutes before the onset of lethal endotoxemia (E. coli lipopolysaccharide, LPS, 5 mg LPS/kg, i.p.). Ethyl pyruvate pretreatment protected BALB/c mice from lethal endotoxemia (ethyl pyruvate survival=20/20 versus vehicle control survival=3/20; P<0.005) (FIG. 3A).
The therapeutic efficacy of the delayed administration of ethyl pyruvate after the onset of endotoxemia was assessed. Ethyl pyruvate dosing in endotoxemic mice was initiated 4 hours after the onset of endotoxemia, when clinical signs were already evident, including diarrhea, piloerection, and depressed spontaneous activity (FIG. 4A).

HMGB-1 = assay: Serum HMGB-1 in endotoxemic mice (western blot); format: in vivo, Balb/C mice; details: for serum HMGB1: pretreatment 40 mg/kg 30 min before LPS, measured 20 hours after onset of endotoxemia
Protocol: as §1
Cytokine measurements. TNF concentration in mouse serum and in conditioned media from RAW 264.7 cell cultures was measured by ELISA (minimum detectable concentration=10 pg/ml). Recombinant mouse TNF standards were obtained from R&D Systems (Inc., Minneapolis, Minn.) and dissolved in 0.1% bovine serum albumin solution (BSA, low endotoxin grade from Sigma Chemical Co., St. Louis, Mo.). Monoclonal antibody to mouse TNF was purchased from Biosource International, Inc., Camarillo, Calif. Human TNF monoclonal antibody, human TNF antiserum and mouse TNF antiserum were prepared and contributed by Dr. Christine Metz. Mouse serum IL-6 and IL-1β levels were measured using ELISA kits (R&D Systems, Inc., Minneapolis, Minn.). HMGB-1 was analyzed by western blot as previously described by Wang et al, 1999. […] Protein was electroblotting to Immun-blot PVDF membrane (Bio-rad, Hercules Calif.) and HMGB-1 was analyzed using polyclonal 241 antibody and secondary anti-rabbit horseradish peroxidase (Amersham, Pitscataway, N.J.). Standard curves were constructed using r-HMGB-1, and the intensity of the 30 kD band analyzed by densitometry. […]
The therapeutic efficacy of the delayed administration of ethyl pyruvate after the onset of endotoxemia was assessed. […]

TNF = TNF release by LPS-stimulated RAW 264.7 macrophage cultures (ELISA); format: cell-based, murine
Protocol: Cell Culture. BALB/c murine macrophage-like RAW 264.7 cells obtained from the American Type Culture Collection (ATCC Number TIB-71, ATCC, Rockville, Mass.) (61), were cultured in RPMI 1640 (Life Technologies, Grand Island, N.Y.) supplemented with 10% heat inactivated fetal bovine serum (Gemini, Calabasas, Calif.), 2 mM glutamine (Cat. # 25030-149, Gibco BRL, Rockville, Mass.) and antibiotic-antimycotic mix (Cat. # 15240-062, Gibco BRL, Rockville, Mass.) in a humidified incubator with 5% CO2. Cells were mechanically removed and resuspended in serum-free Opti-MEM I medium (Life Technology, Grand Island, N.Y.) to perform experiments at 75% confluence.
Cytokine measurements. TNF concentration in mouse serum and in conditioned media from RAW 264.7 cell cultures was measured by ELISA (minimum detectable concentration=10 pg/ml). […] Mouse serum IL-6 and IL-1β levels were measured using ELISA kits (R&D Systems, Inc., Minneapolis, Minn.). HMGB-1 was analyzed by western blot as previously described by Wang et al, 1999. […] Protein was electroblotting to Immun-blot PVDF membrane (Bio-rad, Hercules Calif.) and HMGB-1 was analyzed using polyclonal 241 antibody and secondary anti-rabbit horseradish peroxidase (Amersham, Pitscataway, N.J.). Standard curves were constructed using r-HMGB-1, and the intensity of the 30 kD band analyzed by densitometry. […]

p38 MAPK = assay: LPS-induced p38 MAPK phosphorylation in RAW264.7 cells (western blot); format: cell-based, murine
Protocol: (a) RAW264.7 cells were stimulated with LPS in the presence of the indicated concentrations of ethyl pyruvate. The activation of NF-kB was analyzed by EMSA at 15 min and 4 hours using a ^32P-labeled NF-B probe. Ethyl pyruvate suppressed activation of NF-B in an ethyl pyruvate concentration dependent fashion. The experiment was repeated 3 times. (b) Supershift and competition studies. Nuclear extract of macrophages stimulated with LPS and incubated with antibody against p65-Rel to induce specific supershift of NF-κB complex. Nuclear extracts were incubated with 100-fold molar excess of unlabeled (cold) NP-κB or HIF-1 probe for competition analysis. (c) RAW264.7 cells were stimulated with LPS in the presence of the indicated concentration of ethyl pyruvate. The phosphorylation of p38MAPK was analyzed by western blot using antibodies against phosphorylated (thr180/tyr182) p38MAPK (in accordance with the manufacturer (New England Biolabs, Inc Cat. # 9210, Beverly, Mass.). (d) The total amount of p38 MAPK is visualized by western blot. Ethyl pyruvate prevents the phosphorylation of p38MAPK in macrophage cultures without affecting the intracellular level of total p38MAPK; and
Cell Culture. […]

With CCOC(=O)C(C)=O [ethyl pyruvate] the “clinical signs of morbidity” value ([1]; delayed treatment beginning 4 hours after LPS) was “reversed clinical signs of morbidity”, the survival ([1]; delayed treatment: 40 mg/kg i.p. at 4, 8, 12, 24 and 30 hours after LPS, vehicle 5/20) was 17/20 and the “clinical manifestations of endotoxin morbidity” value ([1]; pretreatment 40 mg/kg 30 minutes before LPS 5 mg/kg i.p.) was “significantly prevented the clinical manifestations of endotoxin morbidity”. The survival ([1]; pretreatment: single dose 40 mg/kg i.p. 30 minutes before LPS 5 mg/kg i.p., vehicle 3/20) was 20/20, the survival ([1]; pretreatment: single dose 40 mg/kg i.p. 30 minutes before LPS 5 mg/kg i.p., vehicle 3/20, listed as EP) was “conferred significant protection against lethality” and the “systemic release of HMGB-1 (serum)” value (HMGB-1; delayed treatment beginning 4 hours post-LPS, measured at 20 hours) was “significantly attenuated the systemic release of HMGB-1”. The “serum HMGB1” value (HMGB-1) was “significantly attenuated”, the “serum HMGB1” value (HMGB-1; listed as Ethyl pyruvate) was “significantly inhibits serum HMGB-1 levels” and the “synthesis of TNF at the highest doses tested” value (TNF; LPS-stimulated RAW 264.7 cells, highest doses of ethyl pyruvate) was “not completely inhibited”. For the same compound, the EC50 (TNF; Mus musculus, RAW264.7, RAW 264.7 cells stimulated with 50 or 100 ng/ml LPS, conditioned media, read-out: concentration that suppressed 50% of the TNF response (EC50)) was 3.4 mM, the “LPS-induced phosphorylation of p38 MAPK” value (p38 MAPK; antibodies against phosphorylated (thr180/tyr182) p38MAPK) was “prevented the LPS-induced phosphorylation and subsequent activation of p38 MAPK” and the “total levels of p38 MAPK” value (p38 MAPK; specificity control, western blot) was “did not significantly influence the total levels of p38 MAPK”.
